Source: PMC10414762, “Gene amplifications cause high-level resistance against albicidin in gram-negative bacteria” (PLOS Biology, 2023)

Target: T1, STM3175 (YgiV) (Salmonella enterica, UniProt Q8ZM00)
T1 construct: full-length STM3175 (288 aa)
Assay: tryptophan fluorescence quenching titration
Format: binding
Excerpt: tryptophan fluorescence quenching titration on STM3175 (YgiV) | Fluorescence quenching of STM3175 plotted as a function of increasing azahistidine albicidin concentration.

T1 sequence (Q8ZM00 whole entry): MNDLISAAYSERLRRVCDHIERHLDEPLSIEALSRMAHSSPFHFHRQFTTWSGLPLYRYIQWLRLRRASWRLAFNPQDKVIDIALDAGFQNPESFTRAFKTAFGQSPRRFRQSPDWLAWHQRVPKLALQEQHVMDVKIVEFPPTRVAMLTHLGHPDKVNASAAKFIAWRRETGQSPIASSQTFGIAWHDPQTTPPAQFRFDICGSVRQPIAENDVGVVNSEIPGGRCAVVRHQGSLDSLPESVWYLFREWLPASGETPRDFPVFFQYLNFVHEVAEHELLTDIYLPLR

**Q.** With `COc1c(NC(=O)c2ccc(NC(=O)c3ccc(NC(=O)[C@H](Cc4c[nH]nn4)NC(=O)c4ccc(NC(=O)/C(C)=C/c5ccc(O)cc5)cc4)cc3)c(OC)c2O)ccc(C(=O)O)c1O` [azahistidine albicidin] as the compound, how does the Kd read?
**A.** The Kd was 170 ± 10 nM.
